# Columns and labels:
# HER2+A549 cells = test: NK cell Herceptin ADCC killing of A549 cells; format: cell-based, human; settings: NK cells cultured with GSK3i for 7 days
# CD20+ Raji cells = test: NK cell cytotoxicity assay, Raji target cells; format: cell-based, human; settings: 4 hours; NK cells overnight IL-15 only or 7 days IL15 + GSK3i
# Experimental: (§1) NK Cell Cytotoxicity Assay: Cytotoxicity was determined using a flow cytometry based method based on a previously published method (Kim, et al. J Immunol Methods. 2007 Aug. 31; 325(1-2): 51-66). NK cells were co-cultured with e450-proliferation dye-labelled targets for 4 hours. CellEvent™ Caspase-3/7 Green Flow Cytometry Assay Kit (Lifer Technologies) was used to assay for cell death among target cells, and samples were read on a BD LSRFortessa cytometer. Killing of SKOV-3 targets was quantified using the Incucyte Zoom instrument. SKOV-3 cells were transiently transduced with NucLight-Red BacMam reagent (Essen Biosciences) and co-cultured with the indicated NK cell populations for 74 hours, with images taken on two hour intervals. Caspase 3/7 activity was monitored to indicate target cells undergoing apoptosis using the CellEvent™ Caspase-3/7 Green Detection Reagent. The number of target cells was normalized to SKOV-3 cells cultured alone, and targets undergoing apoptosis were quantified based on caspase 3/7 activity.
# The ability of GSK3 inhibition to enhance cytotoxicity of NK cells isolated directly from donors was assessed using in vitro killing assays. […] After the target cells were incubated with the differently treated NK cells for 4 hours, the respective percentage of specific killing (target cell lysis) was calculated. […]
# K562 cells = test: NK cell cytotoxicity assay, K562 target cells; format: cell-based; settings: 4 hours; NK cells overnight 10 ng/mL IL-15 only or 7 day IL-15 + 5 μM CHIR99021
# Experimental: as §1
# The ability of GSK3 inhibition to enhance cytotoxicity of NK cells isolated directly from donors was assessed using in vitro killing assays. […] depleted PBMC population was treated overnight with 10 ng/mL IL-15 only (primed), or a 7 day culture combination of 10 ng/mL IL-15 and 5 μM CHIR99021. The target cells for the killing assays included K562 cells, CD20+ Raji cells, HER2+ SKOV3 cells and HER2+A549 cells. The E:T (Effector:Target) ratio applied to each assay ranged from 0.1, 0.5, 1, 5 to 10. After the target cells were incubated with the differently treated NK cells for 4 hours, the respective percentage of specific killing (target cell lysis) was calculated. […] Raji cells are less prone to NK mediated cytotoxicity.
# The ability of STING agonist to enhance cytotoxicity of GSK3i multiday modulated NK cells was assessed using in vitro killing assays. […]
# SKOV-3 cells = test: In vivo tumor clearing of luciferase-expressing SKOV-3 cells by modulated NK cells with Herceptin; design: species or system NSG mice
# Description: In vivo tumor clearing using Modulated NK cells: NSG mice were irradiated with 300 rads one day prior to intraperitoneal transplant of 2×10^5 luciferase-expressing SKOV-3 cells. 5 days after transplant of the ovarian carcinoma cells, mice were either left untreated, treated with Herceptin only, or treated with Herceptin, IL-15, and NK cells cultured for 7 days with IL-15 and CHIR99021. Luciferase-expressing SKOV-3 cells were imaged on day 21 using the IVIS imaging system.
# Moreover, the in vivo tumor clearance ability of GSK3i cultured NK cells using the process provided herein was also tested. NSG mice were irradiated with 300 rads one day prior to intraperitoneal transplant of luciferase-expressing SKOV-3 cells. 5 days after the ovarian carcinoma cell transplant, the mice were either left untreated, treated with Herceptin only, or treated with Herceptin, IL-15, and NK cells cultured for 7 days with IL-15 and CHIR99021. […]
# The in vivo tumor clearance ability of GSK3i cultured NK cells using the process provided herein was then compared to overnight primed CD3/CD19 depleted PBMC, and CD3/CD19 depleted PBMC cultured for 7 days with IL-15 and DMSO. […] Luciferase-expressing SKOV-3 cells were quantified by measuring luciferase activity using the IVIS imaging system.
# [1] = tested on: K562 tumor cells and allogeneic PBMC; test: Dual-target cytotoxicity assay, K562 tumor cells mixed with allogeneic PBMC; format: cell-based, human; settings: GSK3i modulated NK cells; 3-4 NK cell donors per PBMC donor
# Experimental: Cytotoxicity of GSK3i modulated NK cells against allogeneic PBMC was evaluated in combination with K562 tumor cells in a dual-target cytotoxicity assay. Percent specific killing in PBMC+K562+overnight primed NK cells or PBMC+K562+GSK3i modulated NK cells was measured.
# NK cells [2] = test: Maintenance of modulated NK cell phenotype after transfer into NSG mice; format: in vivo
# Experimental: The mice received only IL-15 with no GSK3i. It was shown that NK cells cultured in vitro with GSK3i for 7 days maintain their phenotypic changes in vivo for at least one week after being transferred and without the presence of the small molecule. CD57 remains high representing the maturity of the NK cells which was not the case when the cells were cultured without GSK3i (FIGS. 9A and 9B).
# NK cells [3] = test: NK cell culture with modified K562 feeder cells: proliferation and subtype skewing; format: cell-based, human; settings: 7 days
# Experimental: CD3/19 depleted PBMCs were cultured for 7 days with modified K562 feeder cells in the presence of DMSO (Vehicle), 0.1 uM GSK3i CHIR99021 alone (C), or a combination of 0.1 uM GSK3i CHIR99021, 40 nM MEKi PD0325901, and 1 nM Rapamycin (CPR).
compound,measurement,setting,value
Cc1c[nH]c(-c2cnc(NCCNc3ccc(C#N)cn3)nc2-c2ccc(Cl)cc2Cl)n1 [CHIR99021],ADCC-mediated killing of A549 cells (rate and efficiency),HER2+A549 cells,enhanced
same,"E:T50, Raji cells",CD20+ Raji cells,1-2
same,"E:T50 (E:T ratio when there is 50% of target cell lysis), K562 killing assay",K562 cells,about 1
same,in vivo SKOV-3 ADCC killing (luciferase activity),"SKOV-3 cells; 100 ug Herceptin + 2.5×10^6 cells, vs overnight primed and 7 day IL-15 + DMSO",highly and consistently effective
same,tumor-suppressive effects of Herceptin antibody treatment,"SKOV-3 cells; NK cells cultured 7 days with IL-15 and CHIR99021, plus Herceptin and IL-15, imaged Day 21 post-transplant",enhances
same,percent specific killing of K562 versus allogeneic PBMC,[1],selectively target those cells among normal cells
same,CD57 on NK cells from peripheral blood,"NK cells [2]; 7 days after transfer of 7 day IL15+GSK3i cultured NK cells, mice received only IL-15",remains high
same,CD16 and NKG2C+/CD57+ on transferred NK cells,"NK cells [2]; 7 days after transfer, without small molecule",maintained in vivo
same,proliferation of the activated NK cells overall,"NK cells [3]; K562 feeder modified to express IL21 and 41BBL, vs vehicle",increased
same,number of CD57+NK cells,"NK cells [3]; modified K562 feeder cells, vs vehicle control",highest
